Target: T1, Recombinant human TLR7 (Homo sapiens, UniProt Q9NYK1)
T1 construct: expressed in transfected cells; host or cells: HEK293 cell line stably expressing the pNiFty2-SEAP reporter plasmid; TLR7 in pUNO vector
T1 sequence (Q9NYK1 27-1049): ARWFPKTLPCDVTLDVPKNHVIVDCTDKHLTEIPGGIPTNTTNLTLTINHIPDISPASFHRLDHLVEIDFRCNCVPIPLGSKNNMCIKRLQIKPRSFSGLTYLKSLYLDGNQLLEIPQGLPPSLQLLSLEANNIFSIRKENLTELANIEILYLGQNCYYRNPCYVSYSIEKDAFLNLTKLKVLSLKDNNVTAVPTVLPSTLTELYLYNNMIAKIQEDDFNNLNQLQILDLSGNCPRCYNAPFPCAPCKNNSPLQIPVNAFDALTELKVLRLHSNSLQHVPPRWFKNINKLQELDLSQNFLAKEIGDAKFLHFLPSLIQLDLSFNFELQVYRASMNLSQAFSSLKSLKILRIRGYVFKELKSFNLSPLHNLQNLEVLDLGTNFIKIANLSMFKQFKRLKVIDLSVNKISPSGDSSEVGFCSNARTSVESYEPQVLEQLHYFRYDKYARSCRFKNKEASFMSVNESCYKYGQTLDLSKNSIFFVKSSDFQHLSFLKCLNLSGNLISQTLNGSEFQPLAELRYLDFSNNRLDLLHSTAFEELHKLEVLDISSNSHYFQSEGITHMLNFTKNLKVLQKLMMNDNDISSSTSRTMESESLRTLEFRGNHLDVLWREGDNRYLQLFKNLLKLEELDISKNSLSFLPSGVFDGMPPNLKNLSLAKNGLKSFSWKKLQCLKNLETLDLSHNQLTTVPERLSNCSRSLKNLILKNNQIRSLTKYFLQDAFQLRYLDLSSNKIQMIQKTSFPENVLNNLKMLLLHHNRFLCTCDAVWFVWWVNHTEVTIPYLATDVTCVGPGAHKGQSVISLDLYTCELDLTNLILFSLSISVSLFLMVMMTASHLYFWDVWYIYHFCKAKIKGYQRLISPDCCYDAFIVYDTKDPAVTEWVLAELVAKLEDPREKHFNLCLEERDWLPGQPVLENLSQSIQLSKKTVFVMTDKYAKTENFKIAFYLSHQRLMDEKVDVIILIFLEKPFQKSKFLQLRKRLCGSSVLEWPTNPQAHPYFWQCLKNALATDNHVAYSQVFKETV
Test: Human TLR7 Assay (SEAP reporter in HEK293 cells)
Assay type: cell-based
Conditions: HEK293 cell line stably expressing human TLR7 and pNiFty2-SEAP reporter; SEAP induction after overnight incubation at 37° C., 0.1% (v/v) DMSO
Source text: Recombinant human TLR7 was stably expressed in a HEK293 cell line already stably expressing the pNiFty2-SEAP reporter plasmid; integration of the reporter gene was maintained by selection with the antibiotic zeocin. The most common variant sequence of human TLR7 (represented by the EMBL sequence AF240467) was cloned into the mammalian cell expression vector pUNO and transfected into this reporter cell-line. Transfectants with stable expression were selected using the antibiotic blasticidin. In this reporter cell-line, expression of secreted alkaline phosphatase (SEAP) is controlled by an NFkB/ELAM-1 composite promoter comprising five NFkB sites combined with the proximal ELAM-1 promoter. TLR signaling leads to the translocation of NFkB and to activation of the promoter results in expression of the SEAP gene. TLR7-specific activation was assessed by determining the level of SEAP produced following overnight incubation of the cells at 37° C. with the standard compound in the presence of 0.1% (v/v) dimethylsulfoxide (DMSO). Concentration dependent induction of SEAP production by compounds was expressed as the concentration of compound which produced half of the maximal level of SEAP induction for that compound (pEC50)

In order of falling EC50:
1. CCCCOc1nc(N)c2[nH]c(=O)n(CCCN3CCC[C@H]3C(=O)N(C)C)c2n1 [Example 2, 1-[3-(6-Amino-2-butoxy-8-oxo-7,8-dihydro-9H-purin-9-yl)propyl]-N,N-dimethyl-L-prolinamide]  3160 nM
2. CCCCOc1nc(N)c2[nH]c(=O)n(CCCN3CCC[C@H]3COC)c2n1 [Example 3, 6-Amino-2-butoxy-9-{3-[(25)-2-(methoxymethyl)pyrrolidin-1-yl]propyl}-7,9-dihydro-8H-purin-8-one]  2510 nM
3. CCCCOc1nc(N)c2[nH]c(=O)n(CCCN3CCCC3)c2n1 [Example 1, 6-Amino-2-butoxy-9-(3-pyrrolidin-1-ylpropyl)-7,9-dihydro-8H-purin-8-one]  398 nM
4. CCCCOc1nc(N)c2[nH]c(=O)n(CCCN(C)CC(=O)N(C)C)c2n1 [Example 4, N^2-[3-(6-Amino-2-butoxy-8-oxo-7,8-dihydro-9H-purin-9-yl)propyl]-N^1,N^1,N^2-trimethylglycinamide]  251 nM
